Where two headings read alike, the source gives them in different places.
Key:
[1] = system: HCT116-p21RLuc-GADD153hFLuc-p53Bgal cells; experiment: Anthem's Genotox assay (reporter gene induction p21-RLuc, GADD153-hFLuc, p53-Bgal); details: for Anthem's Genotox assay: LEC in μg/ml (genotoxic lowest effective test concentration): at least one reporter induction above 1.5 fold threshold
Procedure: The assay protocol standardized by us is described here. A stock of the test compound is prepared in 2% v/v solvents (including but not limited to DMSO or PBS) and this stock is used to make serial dilutions for the assay. […] The test compound is assayed for cell viability by standard cell viability/cytotoxicity assays (for example MTT assay as shown in the graphs).
The MTT assay is performed using the MTT reagent (Sigma) dissolved in PBS (5 mg/ml). Briefly, the Genotox sensor cells are incubated with ten fold serial dilutions of the test compound in a 96-well microplate. After 24 h of incubation, 10 μl of the MTT solution is added to each well of the 96-well plate and incubated for 1 hour at 37° C. The medium is discarded (in a fume hood) and 100 μl DMSO is added to the wells. The plate is shaken for 10 min and absorbance is measured at 540 nm.
For the genotoxicity assay, 16 h prior to compound treatment, the engineered Anthem's Genotox sensor cells are seeded in 96-well microplates (10,000 cells per well). […] The test compound is added in two-fold serial dilutions and the microplate is incubated at 37 C, 5% CO2 and 95% humidity for 24 or 48 h depending on the experiment requirements.
The cells are lysed after 24 or 48 h with the 60 μl of lysis buffer per well (the lysis buffer composition has been optimized at Anthem Biosciences to be compatible with luciferase and beta galactosidase assays; 50 ml of Lysis buffer contains 7.5 ml of 1M HEPES at pH 8.0, 125 μl of Triton X 100, 50 mg of Porcine gelatin, 5 ml of glycerol and 25 μl of Antifoam). For each of the luciferase assays (Renilla and Firefly luciferase) 10 μl of the lysate is used, while 30 μl of the lysate is used for the beta galactosidase assay and total protein is estimated using the remaining 10 μl of the lysate by Bradford reagent.
The Renilla luciferase assay is performed using luciferase assay buffer (0.5 M NaCl, 0.1 M Potassium phosphate buffer pH 7.2, 1 mM Di-Sodium EDTA, 1 mg/mL porcine gelatin, 50 mM Potassium iodide) containing 1 μg/well coelentrazine (1 mg/ml stock prepared in 100% methanol). The firefly luciferase assay is performed with the same luciferase assay buffer containing 100 μM D luciferin, 150 μM ATP and 80 μM Coenzyme A. The assay plate is gently shaken for 10 minutes on a microplate shaker (to fully mix the contents of each well). Then the plate is taken to the microplate reader and the luminescence data are collected from the microplates. […] The Luminiscence data are collected with an integration time of 10 seconds and a delay of 2 seconds.
The beta galactosidase assay is carried out with Z assay buffer (50 ml buffer contains 0.4265 g of Na2HPO4, 0.275 g of NaH2PO4, 500 μl of 1M KCl, 50 μl of 1M MgSO4; for every 10 ml, 27 μl of Beta mercaptoethanol is added) and the substrate […] ONPG (1 ml of 10× ONPG stock-20 mg/ml). Once the yellow colour develops, 50 μl 1M Na2CO3 is added per well and the reading is taken at A420.
The luminescence and absorbance data are transported into Microsoft excel spreadsheet and the fold change in the reporter gene expressions is calculated by normalizing with the data from vehicle treated control wells. The graph is plotted with test compound concentrations on X axis, cell viability percentage (from MTT assay) on primary Y axis and reporter gene fold induction on the secondary Y axis. […] The genotoxicity threshold is not calculated for test concentrations that result in less than 50% cell viability. […]

[2] = system: HCT116-p21RLuc-GADD153hFLuc-p53Bgal cells; details: 24 h, MA: metabolic activation using S9 fraction mix
Procedure: The luminescence and absorbance data are transported into Microsoft excel spreadsheet and the fold change in the reporter gene expressions is calculated by normalizing with the data from vehicle treated control wells. The graph is plotted with test compound concentrations on X axis, cell viability percentage (from MTT assay) on primary Y axis and reporter gene fold induction on the secondary Y axis. […] The genotoxic threshold is set at 1.5 fold change (i.e. 50% more than vehicle treated control). The genotoxic LEC is the lowest effective test concentration that produced at least one of the reporter gene inductions of more than 1.5 threshold. The genotoxicity threshold is not calculated for test concentrations that result in less than 50% cell viability. […]
The genotoxic potential of metabolites of test compounds is assessed by incubating the compound in the Anthem's Genotox sensor cells for 3 hours with S9 of Aroclor 1254-treated rats (1% mix), procured from Moltox, Cat #11-101.5. […]
10^3 cells were seeded per well in 100 μl of McCoy's media with 10% FBS was incubated overnight (37° C., 5% CO2, 100% humidity) in a 96-well plates (as two sets). […] The plate was gently shaken for 10 minutes on a microplate shaker and then taken to the microplate reader to obtain the luminescence reading. […]

[3] = assay time 24 h, no metabolic activation

COc1cc([C@@H]2c3cc4c(cc3[C@@H](O[C@@H]3O[C@@H]5CO[C@@H](C)O[C@H]5[C@H](O)[C@H]3O)[C@H]3COC(=O)[C@H]23)OCO4)cc(OC)c1O [Etoposide]
Anthem's Genotox assay: LEC in μg/ml (genotoxic lowest effective test concentration) [1, 3]: 6.25 µg/mL

O=P1(N(CCCl)CCCl)NCCCO1 (stereo not shown) [Cyclophosphamide]
Anthem's Genotox assay: LEC in μg/ml (genotoxic lowest effective test concentration) [2]: > 55.82 µg/mL | Anthem's Genotox assay: Result (assay time in h) [2]: + (positive for genotoxicity)

Nc1ccn([C@@H]2O[C@H](CO)[C@@H](O)[C@@H]2O)c(=O)n1 [AraC arabinoside]
Anthem's Genotox assay: promoter(s) that was(were) induced [1]: p21

CC1COc2c(N3CCN(C)CC3)c(F)cc3c(=O)c(C(=O)O)cn1c23 (stereo not shown) [Ofloxacin]
Anthem's Genotox assay: LEC in μg/ml (genotoxic lowest effective test concentration) [1, 3]: 750.0 µg/mL | Anthem's Genotox assay: Result (assay time in h) ([1]; assay time 24 h, no metabolic activation, positive when reporter gene induction over 1.5 fold): + (positive for genotoxicity)

O=c1c(O)c(-c2ccc(O)c(O)c2)oc2cc(O)cc(O)c12 [Querceti3n]
Anthem's Genotox assay: promoter(s) that was(were) induced [1]: GADD153

Source: patent publication US9285358B2, “Vitro method for high throughput screening of genotoxic agents in eukaryotic cells” (ANTHEM BIOSCIENCES PVT LTD, priority 2011, dated 2016)
